The results in this text go back to ChEMBL document CHEMBL3886489, “Fused pyrazole derivatives as novel ERK inhibitors” (2016).

This assay deals with Mitogen-activated protein kinase 1 (Mus musculus, UniProt P63085). Description: TdF (Temperature Dependence Fluorescence) Assay: The SAR (Structure Activity Relationship) for ERK ligands covered by this invention was interrogated using the TdF (Temperature Dependence Fluorescence) assay or best known as thermal shift assay. (M. W. Pantoliano, et al., "High-density miniaturized thermal shift assays as a general strategy for drug discovery," J. Biomol. Screen 6 (2001) 429-440) The TdF assay was mainly conducted in the 96-well based CHROMO-4 real time fluorescence plate reader (BioRad). The Sypro Orange (Sigma-Aldrich), environmentally sensitive fluorescence dye, was used to monitor the protein folding-unfolding transition. Protein-ligand binding was gauged by the change (or shift) in the unfolding transition temperature (ΔTm) acquired at protein alone with respect to protein in the presence of ligand of interest.Compound of interest was first prepared in DMSO stock (typical concentration: 10 mM). […] Final percentage of DMSO resided in the sample was 2%. The sample plate was heated from 30° C. to 90° C. with thermal ramping rate of 1° C./min.
Sequence of Mitogen-activated protein kinase 1 (P63085 whole entry): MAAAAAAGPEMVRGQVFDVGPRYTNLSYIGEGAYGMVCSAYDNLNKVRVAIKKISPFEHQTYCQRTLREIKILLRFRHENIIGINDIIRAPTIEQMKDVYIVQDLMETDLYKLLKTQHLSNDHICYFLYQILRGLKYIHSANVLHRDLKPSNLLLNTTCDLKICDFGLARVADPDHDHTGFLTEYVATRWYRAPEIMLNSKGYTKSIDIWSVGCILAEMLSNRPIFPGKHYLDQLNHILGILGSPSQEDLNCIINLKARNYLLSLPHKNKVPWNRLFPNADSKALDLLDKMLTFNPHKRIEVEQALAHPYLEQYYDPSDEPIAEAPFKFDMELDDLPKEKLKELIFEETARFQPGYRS

The structures appear in SMILES notation.

In the case of `O=C(N[C@H]1CNC[C@@H]1c1ccccc1)N1CCc2[nH]nc(-c3ccncc3)c2C1` (racemic), the Kd was 6 nM.

By Kd is commonly meant the free concentration of one partner at which half of the binding sites on the other are occupied at equilibrium, for simple one-to-one binding.
